The target of series [1] is Tyrosine-protein kinase SYK (Homo sapiens, UniProt P43405).
The target in series [2] is T1, Tyrosine-protein kinase ZAP-70 (Homo sapiens, UniProt P43403).
T1 sequence (P43403 whole entry): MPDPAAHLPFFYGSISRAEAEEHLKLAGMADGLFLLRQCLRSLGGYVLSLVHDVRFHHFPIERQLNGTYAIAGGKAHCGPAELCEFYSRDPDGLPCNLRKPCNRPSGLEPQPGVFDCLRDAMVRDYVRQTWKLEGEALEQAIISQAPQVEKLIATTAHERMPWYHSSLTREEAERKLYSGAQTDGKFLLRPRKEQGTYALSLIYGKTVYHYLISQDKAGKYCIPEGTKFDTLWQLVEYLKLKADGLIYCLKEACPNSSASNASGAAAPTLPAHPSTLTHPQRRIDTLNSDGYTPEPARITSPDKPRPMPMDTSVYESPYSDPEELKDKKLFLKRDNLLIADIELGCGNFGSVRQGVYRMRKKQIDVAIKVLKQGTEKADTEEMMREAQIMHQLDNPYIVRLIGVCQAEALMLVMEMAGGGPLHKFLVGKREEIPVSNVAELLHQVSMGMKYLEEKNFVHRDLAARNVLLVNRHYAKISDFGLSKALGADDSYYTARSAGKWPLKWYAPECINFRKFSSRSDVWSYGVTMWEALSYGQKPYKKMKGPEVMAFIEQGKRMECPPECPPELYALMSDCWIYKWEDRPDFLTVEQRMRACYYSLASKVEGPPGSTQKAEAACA
Put plainly: Inhibition of human ZAP70.

Series [3] can be described thus: Aqueous solubility of the compound. The format is physicochemical. The note with it: water.
Series [4] addresses Tyrosine-protein kinase Lck (Homo sapiens, UniProt P06239).
In series [5] the target is Protein kinase C beta type (Homo sapiens, UniProt P05771).
Chain of Protein kinase C beta type (P05771 whole entry): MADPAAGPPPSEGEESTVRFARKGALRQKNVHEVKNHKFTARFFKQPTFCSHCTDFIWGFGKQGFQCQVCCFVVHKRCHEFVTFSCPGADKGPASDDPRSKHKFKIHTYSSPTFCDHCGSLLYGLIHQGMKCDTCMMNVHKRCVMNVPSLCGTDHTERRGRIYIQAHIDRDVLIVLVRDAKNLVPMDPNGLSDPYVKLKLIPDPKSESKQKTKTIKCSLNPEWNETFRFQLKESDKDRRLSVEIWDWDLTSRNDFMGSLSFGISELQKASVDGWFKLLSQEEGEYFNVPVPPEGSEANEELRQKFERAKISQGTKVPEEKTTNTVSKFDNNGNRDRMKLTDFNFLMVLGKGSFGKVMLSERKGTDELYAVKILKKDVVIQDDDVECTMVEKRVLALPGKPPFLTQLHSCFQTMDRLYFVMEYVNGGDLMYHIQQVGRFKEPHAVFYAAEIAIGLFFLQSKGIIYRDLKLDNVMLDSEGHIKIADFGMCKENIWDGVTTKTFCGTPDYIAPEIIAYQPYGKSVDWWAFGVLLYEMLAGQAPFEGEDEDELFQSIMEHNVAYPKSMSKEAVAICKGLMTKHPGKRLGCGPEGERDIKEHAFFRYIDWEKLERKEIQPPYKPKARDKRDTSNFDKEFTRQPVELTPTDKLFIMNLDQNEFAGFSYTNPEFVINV
The next series deals with PBMC. Put plainly: Suppression of IL2 production in human PBMC after 24 hrs by ELISA. On the technique in general: In an ELISA, binding on a coated surface is turned into a signal by an enzyme label.
Another series concerns Blood. Put plainly: Suppression of IL2 production in human whole blood after 24 hrs by ELISA.

The record followed here is ChEMBL document CHEMBL1155791, “A novel Syk family kinase inhibitor: design, synthesis, and structure-activity relationship of 1,2,4-triazolo[4,3-c]pyrimidine and 1,2,4-triazolo[1,5-c]pyrimidine derivatives” (Bioorg Med Chem, 2008).

SMILES strings stand for the structures. Values after ≈ are worked out from the molar mass of the structure shown.

Chain of Tyrosine-protein kinase Lck (P06239 whole entry): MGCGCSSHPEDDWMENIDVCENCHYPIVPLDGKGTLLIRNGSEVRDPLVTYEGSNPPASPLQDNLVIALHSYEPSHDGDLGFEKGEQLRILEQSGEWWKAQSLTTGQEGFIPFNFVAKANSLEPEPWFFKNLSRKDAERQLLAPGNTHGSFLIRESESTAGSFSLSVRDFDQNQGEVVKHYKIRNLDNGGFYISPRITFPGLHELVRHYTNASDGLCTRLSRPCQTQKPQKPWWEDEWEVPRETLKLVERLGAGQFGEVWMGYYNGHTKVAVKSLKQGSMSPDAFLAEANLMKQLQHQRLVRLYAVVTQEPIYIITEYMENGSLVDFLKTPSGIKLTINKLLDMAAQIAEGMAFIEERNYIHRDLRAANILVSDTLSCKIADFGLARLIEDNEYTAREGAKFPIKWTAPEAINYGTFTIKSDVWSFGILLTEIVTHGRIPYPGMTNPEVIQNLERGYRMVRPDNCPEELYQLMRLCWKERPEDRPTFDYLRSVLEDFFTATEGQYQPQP

What is called IC50 is the concentration that inhibits the measured activity by half. The low end stands for higher potency, the high end for lower potency. `COc1cc(Nc2nc(N[C@H]3CCCC[C@H]3N)n3c(-c4ccccc4)nnc3c2C(N)=O)cc(OC)c1` (relative stereo) showed a concentration for half-maximal inhibition (IC50) in series [1] of 15.2 µM.

`COc1cc(Nc2nc(N[C@H]3CCCC[C@H]3N)n3nc(-c4cccc(OC)c4)nc3c2C(N)=O)cc(OC)c1` (relative stereo): the midpoint of inhibition in series [1], the IC50, lay at 0.12 µM.

Turning to `COc1cc(Nc2nc(NCCO)n3cnnc3c2C(N)=O)cc(OC)c1`, the half-inhibitory concentration (IC50) in series [1] was determined as 6.1 µM. Against the preceding compound, the IC50 is about 51-fold higher.

In series [1], `COc1cc(Nc2nc(NCCCN)n3cnnc3c2C(N)=O)cc(OC)c1` yielded an IC50 of 7.7 µM.

Usually solubility stands for the dissolved amount per volume that the medium holds. Higher therefore signals much dissolved substance. With `COc1cc(Nc2nc(N[C@H]3CCCC[C@H]3N)n3cnnc3c2C(N)=O)cc(OC)c1` (relative stereo), the IC50 in series [2] stood at 0.12 µM; in series [1], 0.009 µM; in series [4] it was 0.18 µM; in series [5], 0.68 µM. The solubility in series [3] worked out at 351 µg/mL (≈ 823 µM).

Consider `COc1cc(Nc2nc(N[C@H]3CCCC[C@H]3N)n3ncnc3c2C(N)=O)cc(OC)c1` (relative stereo), for which the IC50 in series [2] came to 0.33 µM; in series [1], 0.004 µM; in series [4], 0.59 µM; in series [5], 2.66 µM. The compound also had a solubility in series [3] of 42 µg/mL (≈ 98.5 µM).

Consider `COc1cc(Nc2nc(N[C@H]3CCCC[C@H]3N)n3nc(-c4ccccc4Cl)nc3c2C(N)=O)cc(OC)c1` (relative stereo), for which the IC50 with PBMC worked out at 1.76 µM; in series [1] it was 0.05 µM.

As for `COc1cc(Nc2nc(NCC(C)(C)N)n3cnnc3c2C(N)=O)cc(OC)c1`, 0.15 µM corresponded to half-maximal inhibition in series [1] (IC50).

In series [1], `COc1cc(Nc2nc(NCCN)n3cnnc3c2C(N)=O)cc(OC)c1` gave an IC50 of 0.009 µM.

Turning to `COc1cc(Nc2nc(NCC(=O)OC(C)(C)C)n3cnnc3c2C(N)=O)cc(OC)c1`, the concentration for half-maximal inhibition (IC50) in series [1] is 79.1 µM.

As to `COc1cc(Nc2nc(N[C@H]3CCCC[C@H]3N)n3nc(-c4ccccc4)nc3c2C(N)=O)cc(OC)c1` (relative stereo), the 50% inhibitory concentration (IC50) with PBMC stood at 0.21 µM; with Blood, 2 µM; in series [1] it was 0.083 µM. This compound also showed a solubility in series [3] of 1.2 µg/mL (≈ 2.39 µM).
